Six compounds from ChEMBL document CHEMBL2040796, “Synthesis and biological activity of both enantiomers of kujigamberol isolated from 85-million-years-old Kuji amber” (Bioorg Med Chem Lett, 2012) can be followed below.

Active and inactive are the calls of the source. The calls are words filed in the database; no cut-off is given here.

For one experiment, the system named is Saccharomyces cerevisiae. Put plainly: Antimicrobial activity against Saccharomyces cerevisiae harboring zds1delta, erg3delta pdr1delta pdr3delta mutant assessed as clear growth restored zone at 0.5 to 0.0156 ug/spot. The format is functional, organism-based.
The test system of a further experiment is HL-60. Put plainly: Cytotoxicity against human HL60 cells. Format: functional, cell-based.

For `COC(=O)C1(C)CCCc2ccccc21` (configuration not stated), the outcome in the experiment with Saccharomyces cerevisiae and in the experiment on HL-60 was inactive.
As to `Cc1ccc2c(c1CCC(C)C)CCCC2CO` (configuration not stated), the outcome in the experiment on Saccharomyces cerevisiae and in the experiment with HL-60 was Active.
`OCC1CCCc2ccccc21` (configuration not stated): the result in the experiment on Saccharomyces cerevisiae and with HL-60 was inactive.
As for `Cc1ccc2c(c1CCC(C)C)CCC[C@@]2(C)CO`, the result in the experiment on Saccharomyces cerevisiae and with HL-60 was Active.
On to `Cc1ccc2c(c1CCC(C)C)CCC[C@]2(C)CO` [KUJIGAMBEROL], for which, in the experiment on Saccharomyces cerevisiae, the outcome was Active. In the experiment with HL-60, this compound registered an IC50 of 24 µM.
For the compound `CC1(CO)CCCc2ccccc21` (configuration not stated), the outcome in the experiment with Saccharomyces cerevisiae and in the experiment with HL-60 was inactive.

The IC50 is the concentration that gives 50% inhibition. Higher therefore signals a need for much substance.
